Measured values published in patent US11389473B2, “Magnesium-containing oxytocin formulations and methods of use” (Tonix Pharmaceuticals Holding Corp., priority 2015, dated 2022).

Legend:
[1] = tested on: rat model of facial thermal nociception; assay: Rat model of facial thermal nociception (cheek withdrawal latency to radiant heat); type: in vivo; details: for analgesic effect (elevation in latency to withdrawal): 15-300 min
Description: The heat from a projector lamp was focused on the pre-shaved cheek of rats and the intensity was varied to obtain a withdrawal response with a latency of between 6.5 and 8.5 seconds. The intensity applied to achieve such latencies was recorded for each animal. Once stable/acceptable baseline values were obtained, the average latencies for each rat were calculated. After baseline cheek withdrawal latencies were determined for all rats, each rat received a single nasal administration of either normal saline, 15% magnesium chloride in water, or 1% magnesium lactate in water according to the method developed by Frey (Thorne, et al. Neuroscience., 127: 481-496 (2004)). Briefly, rats (under urethane anesthesia) were placed in a supine position with a rolled pad (2×2 gauze) inserted under the dorsal neck to extend the head back toward the supporting surface. The upper surface of the neck was kept horizontal throughout the dosing procedure to maintain the drug solution in the nasal cavity and minimize dripping down the nasopharynx. A 6 μL drop of the respective drug solution was delivered off the tip of a small pipette and presented to the nares on the left side of the rat while occluding the opposite nares. One drop was administered every 2 minutes, alternating between each nares (thus amounting to a four minute interval between doses to the same nares). Each nostril received 4 drops, totaling a combined volume of 48 μL (8 drops of 6 μL each). Drug solutions were coded in order to keep the experimenter blinded as to the substances delivered. Left cheek withdrawal latencies in response to radiant heat stimulation were then measured over the next 3 hours. Withdrawal latencies were measured prior to nasal administration and at 1, 2, and 3 hours post-treatment.
(§1) One of 4 concentrations of dibasic magnesium citrate (1:1 Mg/citrate) was applied to rats and the effects of these applications on responses to noxious thermal stimulation of the face were assessed as described above. Each rat received a single nasal administration of 3, 6, 10, or 12% magnesium citrate in water (6 rats/group) according to the method described above. Left cheek withdrawal latencies in response to radiant heat stimulation were then measured over the following 300 minutes. Withdrawal latencies were measured prior to nasal administration and at 15, 30, 45, 60, 120, 180, 240, and 300 min post-treatment.
as §1, with “3 doses” for “4 concentrations”, “oxytocin in buffered saline” for “dibasic magnesium citrate (1:1 Mg/citrate)”, “1, 4,” for “3, 6, 10,”, “8 μg oxytocin” for “12% magnesium citrate”, “aqueous solution” for “water”
Aqueous solutions containing a combination of magnesium citrate at one of 3 concentrations with oxytocin at one of 3 doses were applied nasally in rats and changes in withdrawal response latency were measured as above. Each rat received a single nasal administration of 1, 4, or 8 μg of oxytocin in aqueous solution containing 3, 6, or 12% magnesium citrate according to the method described above. Left cheek withdrawal latencies in response to radiant heat stimulation were then measured over the following 300 minutes. Withdrawal latencies were measured prior to nasal administration and at 15, 30, 45, 60, 120, 180, 240, and 300 min post-treatment.
Difference scores were generated for each time point after dosing by comparing the respective withdrawal response latency to pre-dosing (baseline) values.

[2] = tested on: patient with chronic tension-type headache; assay: Patient with chronic tension-type headache, neck and shoulder pain taking oxytocin sprays; type: in vivo, human
Description: A patient with chronic tension-type headache reported having intense pain in their head, neck and shoulders. The patient took 4 sprays of 7.5 IU/spray oxytocin for a dose of 30 units, at which point their headache pain was gone, but the neck and shoulder pain remained. […] Thus, a higher dose was necessary to affect neck and shoulder pain than was necessary to inhibit head pain in the same patient.

[3] = tested on: rat paw inflammation model; assay: Rat paw inflammation model (complete Freund's adjuvant, forepaw force withdrawal threshold); type: in vivo; details: nasal
Description: The analgesic effect of nasally administered oxytocin on cervical nerve-associated inflammatory pain was assessed in a rat paw inflammation model (Martin et al., Pain 1999, 82:199-205). Oxytocin was nasally administered at one of three doses (193, 385 or 768 micrograms in 48 microliters) and force withdrawal thresholds in grams were determined following mechanical stimulation of the inflamed area (forepaw), at regular intervals over the next three hours, and compared against those of vehicle (phosphate buffered saline) treated rats. Injection of complete Freund's adjuvant into the left forepaw of rats produced a robust inflammation of that paw as well as a substantial decrease in the force necessary to elicit a withdrawal response (mechanical allodynia).

[4] = 4 sprays of 7.5 IU/spray, dose of 30 units
[5] = 1% in water, single nasal administration

magnesium citrate
analgesic effect (elevation in latency to withdrawal) ([1]; 3, 6, 10 or 12% in water, single nasal administration): clear dose-dependent analgesic effect

CC[C@H](C)[C@@H]1NC(=O)[C@H](Cc2ccc(O)cc2)NC(=O)[C@@H](N)CSSC[C@@H](C(=O)N2CCC[C@H]2C(=O)N[C@@H](CC(C)C)C(=O)NCC(N)=O)NC(=O)[C@H](CC(N)=O)NC(=O)[C@H](CCC(N)=O)NC1=O [oxytocin, Cys-Tyr-Ile-Gln-Asn-Cys-Pro-Leu-Gly]
withdrawal latency ([1]; 1 μg nasally applied): no increase | analgesic effect (elevation in latency to withdrawal) ([1]; 1, 4 or 8 μg in aqueous solution, single nasal administration): clear dose-dependent analgesic effect | latency to withdrawal in response to noxious cheek heating ([1]; 4 and 8 μg nasally applied): robust increase in latency to withdrawal | headache pain [2, 4]: gone | neck and shoulder pain [2, 4]: remained | neck and shoulder pain ([2]; additional 8-10 sprays, or a total of 60-75 IU): receded and ceased | effect on mechanical allodynia resulting from inflammation ([3]; higher 2 doses, 385 or 768 micrograms in 48 microliters): statistically significant partial reversal of the mechanical allodynia | effect on pain thresholds (force withdrawal threshold, inflamed forepaw) ([3]; lowest dose, 193 micrograms in 48 microliters): ineffective

CC(O)C(=O)[O-].CC(O)C(=O)[O-].[Mg+2] (centres unmarked) [magnesium lactate]
analgesic effect [1, 5]: mild analgesic effect | withdrawal latencies at the 2 and 3 hour time points [1, 5]: still substantially elevated | rise in withdrawal response latency ([1]; 1% in water, single nasal administration, 48 μL): approximately 1.5 s

[Cl-].[Cl-].[Mg+2] [magnesium chloride]
analgesia at 2 and 3 hours after dosing ([1]; 15% in water, single nasal administration): analgesia continuing | analgesic effect compared to nasal saline treated rats ([1]; 15% in water, single nasal administration, 1 hour): strong analgesic effect
